The text below walks through data of PubChem BioAssay (NCI).

Each structure is given as a SMILES string.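 Five concentrations, 48 hours, 96-well plates. Abbreviation: GI50, concentration required for 50% inhibition of growth. The concentration for full growth arrest is given as TGI.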

Among the test systems are DU-145 prostate; 786-0 renal; SN12C renal; MCF7 breast; SNB-19 CNS; SK-MEL-5 melanoma; SF-539 CNS; IGROV1 ovarian; SK-OV-3 ovarian; SF-268 CNS.
Common to all, as to test: growth of human tumour cells (NCI), 48 h

As to `Cn1c2ccccc2c(=S)c2ccccc21`, the TGI in the assay on DU-145 prostate, in the assay with 786-0 renal, in the assay on SN12C renal, in the assay on MCF7 breast, in the assay on SNB-19 CNS and in the assay with SK-MEL-5 melanoma was more than 100 µM throughout. The TGI in the assay with SF-539 CNS, in the assay on IGROV1 ovarian, in the assay with SK-OV-3 ovarian and in the assay with SF-268 CNS was more than 100 µM in each case.
Regarding `CC1=CC(=NC(=O)CBr)C=C/C1=N\S(=O)(=O)c1ccccc1`, the GI50 in the assay with DU-145 prostate is 3.63 µM; in the assay on 786-0 renal, 3.37 µM; in the assay on SN12C renal it was 1.83 µM; in the assay with MCF7 breast, 1.8 µM; in the assay on SNB-19 CNS it was 13.6 µM; in the assay with SK-MEL-5 melanoma, 1.79 µM. In addition, the GI50 in the assay on SF-539 CNS is 3.49 µM; in the assay on IGROV1 ovarian, 3.1 µM; in the assay with SK-OV-3 ovarian it was 14.2 µM; with SF-268 CNS it was 3.69 µM. Also, the TGI was 12.2 µM in the assay with DU-145 prostate; 10.8 µM with 786-0 renal; 3.59 µM with SN12C renal; 4.37 µM in the assay on MCF7 breast; 26.9 µM in the assay with SNB-19 CNS; 3.98 µM in the assay with SK-MEL-5 melanoma. Also, the TGI turned out to be 12 µM in the assay on SF-539 CNS, 12.1 µM in the assay with IGROV1 ovarian, 27.7 µM in the assay on SK-OV-3 ovarian and 13.7 µM in the assay with SF-268 CNS.
As to `Cn1cncc1[C@@](N)(c1ccc(Cl)cc1)c1ccc2c(c1)c(-c1cccc(Cl)c1)cc(=O)n2C`, the GI50 was 1.81 µM with DU-145 prostate; 3.08 µM in the assay on 786-0 renal; 2.48 µM in the assay on SN12C renal; 1.55 µM with MCF7 breast; 5.61 µM with SNB-19 CNS; 1.8 µM in the assay on SK-MEL-5 melanoma. Further, the GI50 with SF-539 CNS was 2.81 µM; in the assay with IGROV1 ovarian, 2.33 µM; in the assay on SK-OV-3 ovarian, 7.24 µM; in the assay on SF-268 CNS, 3.01 µM. In addition, the TGI with DU-145 prostate stood at 3.66 µM; in the assay with 786-0 renal, 14 µM; with SN12C renal, 14.9 µM; in the assay on MCF7 breast, 13.5 µM; with SNB-19 CNS it was 19.7 µM; in the assay on SK-MEL-5 melanoma it was 6.83 µM. In addition, the TGI with SF-539 CNS was determined as 9.47 µM; in the assay with IGROV1 ovarian, 13 µM; in the assay on SK-OV-3 ovarian it was 21.2 µM; in the assay with SF-268 CNS it was 14.7 µM.
In the case of `COc1ccc2c(c1)C(=O)/C(=C/c1cccc(OCC(=O)Nc3nc4c(s3)CCCC4)c1)O2`, the GI50 was 0.499 µM in the assay on DU-145 prostate; 0.15 µM with 786-0 renal; 1.63 µM in the assay on SN12C renal; 2.83 µM with MCF7 breast; 13.9 µM with SNB-19 CNS; 6.08 µM in the assay with SK-MEL-5 melanoma. Also, the GI50 in the assay on SF-539 CNS was 1.32 µM; with IGROV1 ovarian, less than 0.0153 µM; with SK-OV-3 ovarian it was 11.8 µM; with SF-268 CNS, 0.314 µM. In addition, the TGI was found to be 1.22 µM with DU-145 prostate; 0.346 µM with 786-0 renal; 6.81 µM in the assay on SN12C renal; 11.8 µM in the assay on MCF7 breast; 30.4 µM with SNB-19 CNS; 19.4 µM in the assay on SK-MEL-5 melanoma. The TGI with SF-539 CNS is 2.69 µM; with IGROV1 ovarian it was 0.054 µM; with SK-OV-3 ovarian, 25.1 µM; in the assay with SF-268 CNS, 1.08 µM.
In the case of `Cn1cc(C2=C(c3cccc4ccccc34)C(=O)NC2=O)c2ccccc21`, the GI50 was 12.3 µM in the assay on DU-145 prostate; 7.99 µM in the assay with 786-0 renal; 6.58 µM in the assay with SN12C renal; 5.7 µM in the assay with MCF7 breast; 14 µM in the assay on SNB-19 CNS; 5.1 µM in the assay on SK-MEL-5 melanoma. Besides, the GI50 in the assay with SF-539 CNS is 5.99 µM; in the assay with IGROV1 ovarian, 11.2 µM; in the assay on SK-OV-3 ovarian, 8.35 µM; with SF-268 CNS, 9.17 µM. In addition, the TGI was more than 25 µM in the assay with DU-145 prostate; more than 25 µM in the assay with 786-0 renal; more than 17.5 µM with SN12C renal; more than 25 µM with MCF7 breast; more than 25 µM in the assay on SNB-19 CNS; 11.9 µM with SK-MEL-5 melanoma. Moreover, the TGI in the assay with SF-539 CNS was 14.2 µM; with IGROV1 ovarian, more than 24.1 µM; in the assay with SK-OV-3 ovarian it was more than 25 µM; in the assay with SF-268 CNS it was more than 25 µM.
Take `COc1cccc(C2c3cc4c(cc3OC(C)(O)C2C)OCO4)c1O` (stereo not given): the TGI is 53.9 µM in the assay with DU-145 prostate; 68.5 µM in the assay on 786-0 renal; 62.3 µM in the assay with SN12C renal; 49.6 µM with MCF7 breast; more than 100 µM in the assay with SNB-19 CNS; 16.9 µM in the assay with SK-MEL-5 melanoma. In addition, the TGI is 8.65 µM with SF-539 CNS, 69.2 µM with IGROV1 ovarian, 42.8 µM with SK-OV-3 ovarian and more than 100 µM in the assay on SF-268 CNS.
Take `O=C(Nc1ccccc1O)c1cccc(NC2=C(Cl)C(=O)N(Cc3ccccc3)C2=O)c1`: the GI50 with DU-145 prostate is 7.07 µM; in the assay with 786-0 renal, 2.3 µM; in the assay on SN12C renal, 2.22 µM; in the assay with MCF7 breast it was 2.7 µM; in the assay on SNB-19 CNS it was 13.9 µM; in the assay with SK-MEL-5 melanoma, 6.66 µM. The GI50 in the assay on SF-539 CNS is 10.7 µM; with IGROV1 ovarian, 2.87 µM; in the assay with SK-OV-3 ovarian, 12.8 µM; in the assay with SF-268 CNS it was 11.3 µM. Besides, the TGI in the assay on DU-145 prostate was 20.6 µM; in the assay on 786-0 renal, 6.78 µM; with SN12C renal it was 7.57 µM; with MCF7 breast, 14.8 µM; in the assay on SNB-19 CNS, 37.5 µM; with SK-MEL-5 melanoma, 14.4 µM. In addition, the TGI with SF-539 CNS came to 25.4 µM; in the assay on IGROV1 ovarian, 8.65 µM; in the assay on SK-OV-3 ovarian, 31.5 µM; in the assay with SF-268 CNS, 27.5 µM.
As for `Cn1cc(-c2nc(-c3c[nH]c4ncccc34)cs2)c2cc(F)ccc21`, the GI50 in the assay with DU-145 prostate is 3.97 µM; in the assay on 786-0 renal, 2.82 µM; with SN12C renal, 3.47 µM; in the assay on MCF7 breast, 1.13 µM; in the assay on SNB-19 CNS, 3.82 µM; with SK-MEL-5 melanoma, 2.6 µM. In addition, the GI50 is 3.8 µM in the assay with SF-539 CNS, 2.51 µM in the assay with IGROV1 ovarian, 3.9 µM in the assay on SK-OV-3 ovarian and 3.32 µM in the assay on SF-268 CNS. Besides, the TGI in the assay with DU-145 prostate turned out to be 15.2 µM; in the assay on 786-0 renal, 7.64 µM; in the assay on SN12C renal it was 15.3 µM; in the assay with MCF7 breast, 6.53 µM; in the assay on SNB-19 CNS it was 20 µM; with SK-MEL-5 melanoma, 11.5 µM. The TGI worked out at 15.3 µM in the assay with SF-539 CNS, 13.1 µM with IGROV1 ovarian, 32.3 µM in the assay on SK-OV-3 ovarian and 22.5 µM in the assay on SF-268 CNS.
